From PubChem BioAssay AID256 (DTP/NCI, 2004)
Where “and” joins values, the source holds several entries; their conditions need not be identical. Equal entries are not always repeated. Toxic doses and inconclusive results are not listed.

System: CD2F1 mice, L1210 leukemia ip, survival T/C
Assay: NCI In Vivo Anticancer Drug Screen. Data for tumor model L1210 Leukemia (intraperitoneal) in CD2F1 (CDF1) mice
Conditions: higher = longer survival
Outline: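 Implant tumor; dose compound or vehicle; measure endpoint in both groups; report treated divided by control.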

[1] = endpoint: mean survival time, dose: 100.0 mg/kg/injection, schedule: Q04DX002 (ip), vehicle: saline with Tween-80
[2] = endpoint: mean survival time, dose: 200.0 mg/kg/injection, schedule: Q04DX002 (ip), vehicle: saline with Tween-80
[3] = endpoint: mean survival time, dose: 400.0 mg/kg/injection, schedule: Q04DX002 (ip), vehicle: saline with Tween-80
[4] = endpoint: mean survival time, dose: 100.0 mg/kg/injection, schedule: Q01DX001 (ip), vehicle: saline with Tween-80
[5] = endpoint: mean survival time, dose: 200.0 mg/kg/injection, schedule: Q01DX001 (ip), vehicle: saline with Tween-80
[6] = endpoint: mean survival time, dose: 100.0 mg/kg/injection, schedule: Q04DX003 (ip), vehicle: saline with Tween-80
[7] = endpoint: mean survival time, dose: 200.0 mg/kg/injection, schedule: Q04DX003 (ip), vehicle: saline with Tween-80
[8] = endpoint: mean survival time, dose: 400.0 mg/kg/injection, schedule: Q04DX003 (ip), vehicle: saline with Tween-80
[9] = endpoint: mean survival time, dose: 100.0 mg/kg/injection, schedule: Q01DX009 (ip), vehicle: saline with Tween-80
[10] = endpoint: mean survival time, dose: 200.0 mg/kg/injection, schedule: Q01DX009 (ip), vehicle: saline with Tween-80
[11] = endpoint: mean survival time, dose: 400.0 mg/kg/injection, schedule: Q01DX009 (ip), vehicle: saline with Tween-80
[12] = endpoint: mean survival time, dose: 25.0 mg/kg/injection, schedule: Q01DX005 (ip), vehicle: other
[13] = endpoint: mean survival time, dose: 50.0 mg/kg/injection, schedule: Q01DX005 (ip), vehicle: other
[14] = endpoint: mean survival time, dose: 100.0 mg/kg/injection, schedule: Q01DX005 (ip), vehicle: other

O=S(=O)(Nc1ccc(Br)cc1)c1ccc(Cl)c(Cl)c1
T/C [1]: 91 % of control | T/C [2]: 88 % of control | T/C [3]: 88 % of control

CSc1ncnc2c(C3OC(COC(C)=O)C(OC(C)=O)C3OC(C)=O)[nH]nc12 (configuration not stated)
T/C (endpoint: median survival time, dose: 8.0 mg/kg/injection, schedule: Q01DX005 (ip), vehicle: distilled water + Tween-80): 94 % of control | T/C (endpoint: median survival time, dose: 16.0 mg/kg/injection, schedule: Q01DX005 (ip), vehicle: distilled water + Tween-80): 103 % of control | T/C (endpoint: median survival time, dose: 32.0 mg/kg/injection, schedule: Q01DX005 (ip), vehicle: distilled water + Tween-80): 96 % of control | T/C (endpoint: median survival time, dose: 64.0 mg/kg/injection, schedule: Q01DX005 (ip), vehicle: distilled water + Tween-80): 103 % of control | T/C (endpoint: median survival time, dose: 128.0 mg/kg/injection, schedule: Q01DX005 (ip), vehicle: distilled water + Tween-80): 106 % of control

COc1ccc(-c2nc(N)nc3c2CN(CCC(=O)O)C3=O)cc1
T/C (endpoint: mean survival time, dose: 100.0 mg/kg/injection, schedule: Q04DX003 (ip), vehicle: saline): 102 % of control | T/C (endpoint: mean survival time, dose: 200.0 mg/kg/injection, schedule: Q04DX003 (ip), vehicle: saline): 100 % of control | T/C (endpoint: mean survival time, dose: 400.0 mg/kg/injection, schedule: Q04DX003 (ip), vehicle: saline): 102 % of control

CCCCCCCCCCCCCCCCCCOCC(CO)OC (configuration not stated)
T/C (endpoint: median survival time, dose: 25.0 mg/kg/injection, schedule: Q01DX009 (ip), vehicle: saline with Tween-80): 104 % of control | T/C (endpoint: median survival time, dose: 50.0 mg/kg/injection, schedule: Q01DX009 (ip), vehicle: saline with Tween-80): 101 % of control | T/C (endpoint: median survival time, dose: 100.0 mg/kg/injection, schedule: Q01DX009 (ip), vehicle: saline with Tween-80): 103 % of control | T/C (endpoint: median survival time, dose: 200.0 mg/kg/injection, schedule: Q01DX009 (ip), vehicle: saline with Tween-80): 102 % of control

COc1ccc(NC(=O)NCCCl)cc1
T/C [4]: 90 % of control | T/C [5]: 94 % of control

CC(=O)C(CCN(C)C)(c1ccccc1)c1ccccc1
T/C (endpoint: mean survival time, dose: 75.0 mg/kg/injection, schedule: Q01DX001 (ip), vehicle: saline): 102 % of control | T/C (endpoint: mean survival time, dose: 150.0 mg/kg/injection, schedule: Q01DX001 (ip), vehicle: saline): 91 % of control

O=C(O)CCN1C(=O)c2ccccc2C1=O
T/C [6]: 98 % of control | T/C [7]: 97 % of control | T/C [8]: 97 % of control

Clc1ccc2scc3c4ccccc4nc-3c2c1
T/C (endpoint: mean survival time, dose: 25.0 mg/kg/injection, schedule: Q01DX009 (ip), vehicle: saline): 104 % of control | T/C (endpoint: mean survival time, dose: 50.0 mg/kg/injection, schedule: Q01DX009 (ip), vehicle: saline): 101 % of control

CC(=O)O[C@H]1CC[C@H]2[C@@H]3CCC4=C(Cl)C(=O)CC[C@]4(C)[C@H]3CC[C@]12C
T/C [9]: 96 % of control | T/C [6]: 97 % of control | T/C [10]: 94 % of control | T/C [7]: 96 % of control | T/C [11]: 94 % of control | T/C [8]: 103 % of control

CCCN(CCC)C(=S)[S-].CCCN(CCC)C(=S)[S-].[Zn]
T/C (endpoint: mean survival time, dose: 75.0 mg/kg/injection, schedule: Q04DX003 (ip), vehicle: saline): 95 % of control | T/C (endpoint: mean survival time, dose: 150.0 mg/kg/injection, schedule: Q04DX003 (ip), vehicle: saline): 86 % of control | T/C (endpoint: mean survival time, dose: 300.0 mg/kg/injection, schedule: Q04DX003 (ip), vehicle: saline): 101 % of control

CCCCCCCCCCCCSC#N
T/C (endpoint: mean survival time, dose: 100.0 mg/kg/injection, schedule: Q04DX002 (ip), vehicle: Klucel (hydroxypropylcellulose) (HPC)): 101 % of control | T/C [1]: 96 % of control | T/C (endpoint: mean survival time, dose: 200.0 mg/kg/injection, schedule: Q04DX002 (ip), vehicle: Klucel (hydroxypropylcellulose) (HPC)): 101 % of control | T/C [2]: 101 % of control

N#CC1CCCC1=O (configuration not stated)
T/C (endpoint: mean survival time, dose: 5.0 mg/kg/injection, schedule: Q04DX003 (ip), vehicle: saline): 101 % of control | T/C (endpoint: mean survival time, dose: 10.0 mg/kg/injection, schedule: Q04DX003 (ip), vehicle: saline): 101 % of control | T/C (endpoint: mean survival time, dose: 20.0 mg/kg/injection, schedule: Q04DX003 (ip), vehicle: saline): 106 % of control

O=S(=O)(NCCNS(=O)(=O)c1ccccc1)c1ccccc1
T/C [4]: 110 % of control | T/C [5]: 95 % of control | T/C (endpoint: mean survival time, dose: 400.0 mg/kg/injection, schedule: Q01DX001 (ip), vehicle: saline with Tween-80): 100 % of control

N#Cc1ccc(CCl)cc1
T/C (endpoint: mean survival time, dose: 50.0 mg/kg/injection, schedule: Q01DX009 (ip), vehicle: Klucel (hydroxypropylcellulose) (HPC)): 98 % of control | T/C (endpoint: mean survival time, dose: 100.0 mg/kg/injection, schedule: Q01DX009 (ip), vehicle: Klucel (hydroxypropylcellulose) (HPC)): 98 % of control

Cc1ccccc1NC(=O)c1ccccc1
T/C [9]: 97 % of control | T/C [10]: 100 % of control | T/C [11]: 91 % of control

CC(=O)ON=C1C=CC(=C(C#N)c2ccccc2)C=C1
T/C (endpoint: mean survival time, dose: 50.0 mg/kg/injection, schedule: Q01DX001 (ip), vehicle: saline): 96 % of control | T/C (endpoint: mean survival time, dose: 50.0 mg/kg/injection, schedule: Q01DX009 (ip), vehicle: saline with Tween-80): 97 % of control and 101 % of control | T/C (endpoint: mean survival time, dose: 100.0 mg/kg/injection, schedule: Q01DX001 (ip), vehicle: saline): 98 % of control | T/C [9]: 98 % of control and 100 % of control | T/C [6]: 91 % of control | T/C (endpoint: mean survival time, dose: 200.0 mg/kg/injection, schedule: Q01DX001 (ip), vehicle: saline): 95 % of control | T/C [10]: 93 % of control and 101 % of control | T/C [7]: 95 % of control | T/C (endpoint: mean survival time, dose: 400.0 mg/kg/injection, schedule: Q01DX001 (ip), vehicle: saline): 90 % of control | T/C [8]: 105 % of control

O=C1CSC(=S)N1/N=C/c1ccc(Cl)c(Cl)c1
T/C (endpoint: mean survival time, dose: 1.56 mg/kg/injection, schedule: Q01DX009 (ip), vehicle: saline with Tween-80): 97 % of control | T/C (endpoint: mean survival time, dose: 3.13 mg/kg/injection, schedule: Q01DX009 (ip), vehicle: saline with Tween-80): 100 % of control | T/C (endpoint: mean survival time, dose: 6.25 mg/kg/injection, schedule: Q01DX009 (ip), vehicle: saline with Tween-80): 91 % of control | T/C (endpoint: mean survival time, dose: 6.25 mg/kg/injection, schedule: Q04DX003 (ip), vehicle: saline with Tween-80): 100 % of control

O=C(O/N=C(/CN1CCOCC1)c1ccc(Cl)cc1)c1ccccc1
T/C [6]: 97 % of control | T/C [7]: 94 % of control | T/C [8]: 90 % of control

CC(C)OC(=O)c1cc([N+](=O)[O-])c(Sc2ncnc3nc[nH]c23)c([N+](=O)[O-])c1
T/C (endpoint: mean survival time, dose: 0.63 mg/kg/injection, schedule: Q01DX005 (ip), vehicle: other): 109 % of control | T/C (endpoint: mean survival time, dose: 1.25 mg/kg/injection, schedule: Q01DX005 (ip), vehicle: other): 119 % of control | T/C (endpoint: mean survival time, dose: 2.5 mg/kg/injection, schedule: Q01DX005 (ip), vehicle: other): 114 % of control | T/C (endpoint: mean survival time, dose: 5.0 mg/kg/injection, schedule: Q01DX005 (ip), vehicle: other): 124 % of control | T/C (endpoint: mean survival time, dose: 9.9 mg/kg/injection, schedule: Q01DX005 (ip), vehicle: other): 115 % of control | T/C [12]: 157 % of control | T/C (endpoint: mean survival time, dose: 33.3 mg/kg/injection, schedule: Q01DX005 (ip), vehicle: other): 158 % of control | T/C [13]: 151 % of control and 178 % of control and 184 % of control | T/C [14]: 89 % of control

CCCCCC(=O)NNc1nc(N)nc2nonc12
T/C (endpoint: mean survival time, dose: 6.25 mg/kg/injection, schedule: Q01DX005 (ip), vehicle: other): 109 % of control | T/C (endpoint: mean survival time, dose: 12.5 mg/kg/injection, schedule: Q01DX005 (ip), vehicle: other): 97 % of control | T/C [12]: 105 % of control | T/C [13]: 97 % of control | T/C [14]: 100 % of control

C/C=C/c1cnc(N)nc1-c1ccccc1
T/C [1]: 101 % of control | T/C [2]: 96 % of control | T/C [3]: 96 % of control

CC(C)(C)CC(C)(C)c1ccc(OCCOc2ccccc2N)cc1
T/C [9]: 88 % of control | T/C [10]: 88 % of control | T/C [11]: 94 % of control

COC(=O)c1ccccc1NC(=O)Nc1cccc(OC)c1
T/C (endpoint: mean survival time, dose: 100.0 mg/kg/injection, schedule: Q01DX001 (ip), vehicle: Klucel (hydroxypropylcellulose) (HPC)): 95 % of control | T/C (endpoint: mean survival time, dose: 200.0 mg/kg/injection, schedule: Q01DX001 (ip), vehicle: Klucel (hydroxypropylcellulose) (HPC)): 101 % of control | T/C (endpoint: mean survival time, dose: 400.0 mg/kg/injection, schedule: Q01DX001 (ip), vehicle: Klucel (hydroxypropylcellulose) (HPC)): 95 % of control

O=C(CC(=O)C(F)(F)C(F)(F)C(F)(F)F)C(F)(F)F.O=C(CC(=O)C(F)(F)C(F)(F)C(F)(F)F)C(F)(F)F.O=C(CC(=O)C(F)(F)C(F)(F)C(F)(F)F)C(F)(F)F.O=C(CC(=O)C(F)(F)C(F)(F)C(F)(F)F)C(F)(F)F.[Yb]
T/C (endpoint: median survival time, dose: 50.0 mg/kg/injection, schedule: Q04DX002 (ip), vehicle: saline with Tween-80): 100 % of control | T/C (endpoint: median survival time, dose: 100.0 mg/kg/injection, schedule: Q04DX002 (ip), vehicle: saline with Tween-80): 100 % of control | T/C (endpoint: median survival time, dose: 200.0 mg/kg/injection, schedule: Q04DX002 (ip), vehicle: saline with Tween-80): 100 % of control | T/C (endpoint: median survival time, dose: 400.0 mg/kg/injection, schedule: Q04DX002 (ip), vehicle: saline with Tween-80): 100 % of control
